Experimental data from patent publication US10344025B2, “GLS1 inhibitors for treating disease” (Board of Regents, The University of Texas System, priority 2014, dated 2019).
Where two headings read alike, the source gives them in different places.

Columns and labels:
[1] = molecular target: purified recombinant human GAC (GLS1) (Homo sapiens (Human), UniProt O94925); test: GLS1 Enzymatic Activity Assay (dual-coupled enzymatic assay, resorufin/Amplex UltraRed readout); format: biochemical;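 further: glutamate from GAC coupled via glutamate oxidase and peroxidase to resorufin, read as fluorescence (ex 530, em 590 nm) kinetically or at 20 min, four-parameter logistic IC50 fit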
Sequence of purified recombinant human GAC (GLS1) (O94925 other isoform, or with tags, fused parts or gaps): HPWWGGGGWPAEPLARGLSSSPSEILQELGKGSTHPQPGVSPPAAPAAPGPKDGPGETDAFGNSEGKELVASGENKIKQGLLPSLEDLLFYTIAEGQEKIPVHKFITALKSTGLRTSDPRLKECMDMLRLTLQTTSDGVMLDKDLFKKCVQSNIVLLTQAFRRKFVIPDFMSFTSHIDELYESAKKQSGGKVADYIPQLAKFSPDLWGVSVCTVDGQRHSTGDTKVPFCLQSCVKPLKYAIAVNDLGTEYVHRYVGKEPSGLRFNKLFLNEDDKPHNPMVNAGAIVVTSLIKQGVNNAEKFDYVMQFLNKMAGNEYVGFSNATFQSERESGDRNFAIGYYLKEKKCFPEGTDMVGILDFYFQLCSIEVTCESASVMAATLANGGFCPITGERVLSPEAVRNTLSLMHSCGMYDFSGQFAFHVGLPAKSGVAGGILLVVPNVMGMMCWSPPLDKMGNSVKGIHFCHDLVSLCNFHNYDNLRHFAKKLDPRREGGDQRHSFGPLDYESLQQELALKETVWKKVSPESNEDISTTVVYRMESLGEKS

A549 cells = test: Proliferation Assay (A549 viability, Cell Titer Fluor, 72 hours); format: cell-based
Outline: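 Cell Titer Fluor fluorescence after 72 h compound treatment (0.5% DMSO, 37 °C, 5% CO2) of A549 cells plated 24 h earlier at 1000/well. Four-parameter logistic fitting gave IC50.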

| IC50 [1] | EC50 (A549 cells; Homo sapiens, A549, 72 h) | EC50 (A549 cells) | SMILES |
| --- | --- | --- | --- |
| 0.1 to 0.5 µM | 0.5 to 5 µM |  | O=C(NCc1cccc(OC(F)(F)F)c1)c1cn(CCC(F)Cn2cc(C(=O)N[C@@H](CO)c3ccccc3)nn2)nn1 (stereo partly drawn) [Example 461, 1-{2-fluoro-4-[4-({[3-(trifluoromethoxy)phenyl]methyl}carbamoyl)-1H-1,2,3-triazol-1-yl]butyl}-N-[(1R)-2-hydroxy-1-phenylethyl]-1H-1,2,3-triazole-4-carboxamide] |
| < 0.1 µM | < 0.1 µM |  | O=C(NCc1cncc(C(F)(F)F)c1)c1cn(CCCCn2cc(C(=O)NCc3cccc(C(F)(F)F)n3)nn2)nn1 [Example 144, 1-{4-[4-({[6-(trifluoromethyl)pyridin-2-yl]methyl}carbamoyl)-1H-1,2,3-triazol-1-yl]butyl}-N-{[5-(trifluoromethyl)pyridin-3-yl]methyl}-1H-1,2,3-triazole-4-carboxamide] |
| 0.5 to 5 µM | 0.5 to 5 µM |  | O=C(Cc1ccccn1)Nc1cn(CCCCn2cc(C(=O)NCC3CCCCC3)nn2)nn1 [Example 285, N-(cyclohexylmethyl)-1-(4-{4-[2-(pyridin-2-yl)acetamido]-1H-1,2,3-triazol-1-yl}butyl)-1H-1,2,3-triazole-4-carboxamide] |
| 0.1 to 0.5 µM | 0.1 to 0.5 µM |  | O=C(NCc1cncc(C(F)(F)F)c1)c1cn(CC(F)CCc2nnc(C(=O)NCCC(F)(F)F)s2)nn1 (centres unmarked) [Example 512, 5-{3-fluoro-4-[4-({[5-(trifluoromethyl)pyridin-3-yl]methyl}carbamoyl)-1H-1,2,3-triazol-1-yl]butyl}-N-(3,3,3-trifluoropropyl)-1,3,4-thiadiazole-2-carboxamide] |
| < 0.1 µM | 0.1 to 0.5 µM |  | COCCNC(=O)c1cn(CCCCc2ccc(NC(=O)Cc3cc(OC(F)(F)F)ccc3F)nn2)nn1 [Example 584, 1-(4-(6-(2-(2-fluoro-5-(trifluoromethoxy)phenyl)acetamido)pyridazin-3-yl)butyl)-N-(2-methoxyethyl)-1H-1,2,3-triazole-4-carboxamide] |
| < 0.1 µM |  | 0.1 to 0.5 µM | O=C(NCc1cccc(OC(F)(F)F)c1)c1cn(CCCCn2cc(C(=O)NCC3CC4CCC3O4)nn2)nn1 (centres unmarked) [Example 116, N-{7-oxabicyclo[2.2.1]heptan-2-ylmethyl}-1-{4-[4-({[3-(trifluoromethoxy)phenyl]methyl}carbamoyl)-1H-1,2,3-triazol-1-yl]butyl}-1H-1,2,3-triazole-4-carboxamide] |
| < 0.1 µM | < 0.1 µM |  | Cc1ccc(CNC(=O)c2cn(CCC(F)Cn3cc(NC(=O)Cc4cccc(OC(F)(F)F)c4)nn3)nn2)cn1 (centres unmarked) [Example 328, 1-[3-fluoro-4-(4-{2-[3-(trifluoromethoxy)phenyl]acetamido}-1H-1,2,3-triazol-1-yl)butyl]-N-[(6-methylpyridin-3-yl)methyl]-1H-1,2,3-triazole-4-carboxamide] |
| < 0.1 µM | < 0.1 µM |  | Cc1ccc(CNC(=O)c2cn(CCCCn3cc(C(=O)NCc4cccc(OC(F)(F)F)c4)nn3)nn2)cn1 [Example 72, 1-[4-(4-{[(6-methylpyridin-3-yl)methyl]carbamoyl}-1H-1,2,3-triazol-1-yl)butyl]-N-{[3-(trifluoromethoxy)phenyl]methyl}-1H-1,2,3-triazole-4-carboxamide] |
| < 0.1 µM | < 0.1 µM |  | Cc1ccc(CNC(=O)c2cn(CCC(F)Cn3cc(NC(=O)Cc4cc(OC(F)(F)F)ccc4F)nn3)nn2)cn1 (centres unmarked) [Example 376, 1-[3-fluoro-4-(4-{2-[2-fluoro-5-(trifluoromethoxy)phenyl]acetamido}-1H-1,2,3-triazol-1-yl)butyl]-N-[(6-methylpyridin-3-yl)methyl]-1H-1,2,3-triazole-4-carboxamide] |
| < 0.1 µM | < 0.1 µM |  | O=C(NCc1cncc(C(F)(F)F)c1)c1cn(CC(F)CCc2nnc(C(=O)NCc3cccc(C(F)(F)F)c3)s2)nn1 (centres unmarked) [Example 480, 5-{3-fluoro-4-[4-({[5-(trifluoromethyl)pyridin-3-yl]methyl}carbamoyl)-1H-1,2,3-triazol-1-yl]butyl}-N-{[3-(trifluoromethyl)phenyl]methyl}-1,3,4-thiadiazole-2-carboxamide] |
